SMILES strings stand for the structures. Activity calls are given as the source filed them. The rule behind the calls is not given here. Some results are limits rather than exact numbers.

The test system of the experiment is SNU-C1 viability, CellTiter-Glo ATP luminescence. The experiment is described as follows: SNU-C1 cell viability reduction, dose response, CellTiter-Glo luminescence (AID 1117323).

As usually defined, the IC50 is the concentration needed to halve the response being measured. With `CCCCCCCCCCCCCC[N+](C)(C)C`, the 50% inhibitory concentration (IC50) is 5.17 nM.

As to `Cc1ccc([N+](=O)[O-])[c]2c1[O][Hg]2`, the IC50 is 202 nM.

As for `O=C1[O][Bi][O]c2ccccc21`, the IC50 was 15400 nM (inactive).

As for `O=C(O)C1(C(=O)O)CCC1.[NH2-].[NH2-].[Pt+2]`, the IC50 was > 20000 nM (inactive).

Consider `OCCN1CCN(CC/C=C2/c3ccccc3Sc3ccc(C(F)(F)F)cc32)CC1`, for which the IC50 is 1030 nM.

Consider `CC(=O)[O][Hg][c]1ccccc1`, for which the IC50 was 192 nM.

For `CC[C@]1(O)C[C@@H]2CN(CCc3c([nH]c4ccccc34)[C@@](C(=O)OC)(c3cc4c(cc3OC)N(C)[C@H]3[C@@](O)(C(=O)OC)[C@H](OC(C)=O)[C@]5(CC)C=CCN6CC[C@]43[C@@H]65)C2)C1`, the IC50 is > 20000 nM (inactive).

For the origin of these results see PubChem BioAssay AID1117323.
